Patent US9346753B2, “Dithiol mucolytic agents” (PARION SCIENCES, INC., priority 2013, dated 2016)
Structures can show the parent of a compound that is named as a salt.

Assay: DTNB assay: rate of disulfide bond reduction
Assay type: biochemical
Parameters: unit not given here
Details: 2nd order kinetic
Method: DTNB ASSAY: This assay determines the rate which a mucolytic agent can reduce a disulfide bond using 5,5-Dithiobis(2-nitrobenzoic acid). DTNB in various pH buffers and allows comparison of the kinetic rates of reducing agents. First, reducing agent stock solutions (30 mM) were made up in DMSO. Each compound stock solution was diluted, […] in 1 ml 50 mM Tris-HCl buffer, pH 7.5, and then added in a 1:1 volumetric ratio to a solution of 100 mM DTNB in 50 mM Tris-HCl buffer, pH 7.5. Max Abs412 was measured and then utilized to calculate the activity concentration. If the observed activity concentrations differed from expected activity concentrations by more than 5%, the volume was accordingly adjusted to kinetically test the rate in the next step. After having added the reducing agents, diluted in a range of pH buffer solutions (pH 6.0-7.5), to 45 mM DTNB in 50 mM Tris-HCl and measured the Abs412 for 5 min rates were calculated as a 2nd order kinetic.

Compound	Kinetic Reaction Rates of Reduction of DTNB (pH 6)	Kinetic Reaction Rates of Reduction of DTNB (pH 6.5)	Kinetic Reaction Rates of Reduction of DTNB (pH 7)	Kinetic Reaction Rates of Reduction of DTNB (pH 7.5)
O[C@H](CS)[C@H](O)CS (racemic) [DTT, dithiothreitol, reference compound]	69	176	382	2088
N=C(N)NCCCC[C@H](N)C(=O)NCCOc1ccc(CS)c(CS)c1 [C, (S)-2-amino-N-(2-(3,4-bis(mercaptomethyl)phenoxy)ethyl)-6-guanidinohexanamide]	2460	7122	12313	17317
N=C(N)NCCCC[C@@H](N)C(=O)NCCOc1ccc(CS)c(CS)c1 [Compound B, (R)-2-amino-N-(2-(3,4-bis(mercaptomethyl)phenoxy)ethyl)-6-guanidinohexanamide Hydrochloride]	1491			
CC(=O)NCCCC[C@H](N)C(=O)NCCOc1ccc(CS)c(CS)c1 [Compound K, (S)-6-acetamido-2-amino-N-(2-(3,4-bis(mercaptomethyl)phenoxy)ethyl)hexanamide]	678	1820	3775	9143
OC[C@@H](O)[C@@H](O)[C@H](O)[C@@H](O)CNCCOc1ccc(CS)c(CS)c1 [Compound O, (2R,3R,4R,5S)-6-(2-(3,4-bis(mercaptomethyl)phenoxy)ethylamino)hexane-1,2,3,4,5-pentaol hydrochloride]	921	2500	5412	13547
NCCCC[C@@H](N)C(=O)NCCOc1ccc(CS)c(CS)c1 [Compound V, (R)-2,6-diamino-N-(2-(3,4-bis(mercaptomethyl)phenoxy)ethyl)hexanamide Hydrochloride]	1419	4568	6192	10043
NCCCC[C@H](N)C(=O)NCCOc1cc(CS)c(CS)cc1OCCNC(=O)[C@@H](N)CCCCN [Compound W, (2S,2′S)-N,N′-(2,2′-(4,5-bis(mercaptomethyl)-1,2-phenylene)bis(oxy)bis(ethane-2,1-diyl))bis(2,6-diaminohexanamide) Hydrochloride]	4850			
N=C(N)NCCCC[C@H](N)C(=O)NCCCC[C@H](N)C(=O)NCCOc1ccc(CS)c(CS)c1 [E, (S)-2-amino-N-((S)-5-amino-6-(2-(3,4-bis(mercaptomethyl)phenoxy)ethylamino)-6-oxohexyl)-6-guanidinohexanamide Hydrochloride]	5933	13718	16393	17109
N=C(N)NCCCC[C@H](N)C(=O)NCCOc1cc(CS)c(CS)cc1OCCNC(=O)[C@@H](N)CCCCNC(=N)N [H, (2S,2′S)-N,N′-(2,2′-(4,5-bis(mercaptomethyl)-1,2-phenylene)bis(oxy)bis(ethane-2,1-diyl))bis(2-amino-6-guanidinohexanamide) Hydrochloride]	6835			
CC(C)(C)OC(=O)NCCOc1ccc(CS)c(CS)c1 [I, tert-butyl 2-(3,4-bis(mercaptomethyl)phenoxy)ethylcarbamate]	285	745	1916	7265
NCCOc1ccc(CS)c(CS)c1 [KK, (4-(2-aminoethoxy)-1,2-phenylene)dimethanethiol]	873	2411	5163	13896
